Measured values published in US7812178B2, “Isoquinoline compound and pharmaceutical use thereof” (Mitsubishi Tanabe Pharma Corporation, priority 2002, dated 2010).
pIC50: −log10 of the molar value. One block for each compound: values may come before it.

Assays:
recombinant human PARP = biological target: T1, recombinant human PARP (Homo sapiens, UniProt P09874); test: PARP enzyme activity inhibitory action (3H-NAD poly ADP-ribosylation, filter assay); format: biochemical; conditions: 25° C., 15 min
T1 construct: purchased Trevigen 4667-02X
Procedure: After incubation at 25° C. for 15 min., the reaction was stopped with 20% trichloroacetic acid, and the resulting acid insoluble fraction was adsorbed to a GF/B filter. The filter was washed several times with 5% trichloroacetic acid, and the radiation dose on the filter was measured with a liquid scintillation counter.

[1] = Determination of stability in physiological saline at room temperature (residual ratio by HPLC); format: physicochemical; conditions: for Residual rate (%) under non-shielding 7 days later / Residual rate (%) under shielding 7 days later: day 7; for Residual rate (%) under non-shielding 11 days later / Residual rate (%) under shielding 11 days later: day 11
Procedure: Each compound was dissolved in physiological saline to give solutions having a concentration of 1.0 mg/mL or 10 mg/mL. They were preserved at room temperature, under shielding or non-shielding and the residual ratio at day 7 and day 11 was measured by HPLC. […]
column: Inertsil ODS3V (GL Science Inc.)
Mobile phase: methanol: 0.01 mol/L aqueous ammonium acetate solution detection wavelength: 254 nm

[2] = 1.0 mg/mL in physiological saline
[3] = 10 mg/mL in physiological saline

T1 sequence (P09874 whole entry): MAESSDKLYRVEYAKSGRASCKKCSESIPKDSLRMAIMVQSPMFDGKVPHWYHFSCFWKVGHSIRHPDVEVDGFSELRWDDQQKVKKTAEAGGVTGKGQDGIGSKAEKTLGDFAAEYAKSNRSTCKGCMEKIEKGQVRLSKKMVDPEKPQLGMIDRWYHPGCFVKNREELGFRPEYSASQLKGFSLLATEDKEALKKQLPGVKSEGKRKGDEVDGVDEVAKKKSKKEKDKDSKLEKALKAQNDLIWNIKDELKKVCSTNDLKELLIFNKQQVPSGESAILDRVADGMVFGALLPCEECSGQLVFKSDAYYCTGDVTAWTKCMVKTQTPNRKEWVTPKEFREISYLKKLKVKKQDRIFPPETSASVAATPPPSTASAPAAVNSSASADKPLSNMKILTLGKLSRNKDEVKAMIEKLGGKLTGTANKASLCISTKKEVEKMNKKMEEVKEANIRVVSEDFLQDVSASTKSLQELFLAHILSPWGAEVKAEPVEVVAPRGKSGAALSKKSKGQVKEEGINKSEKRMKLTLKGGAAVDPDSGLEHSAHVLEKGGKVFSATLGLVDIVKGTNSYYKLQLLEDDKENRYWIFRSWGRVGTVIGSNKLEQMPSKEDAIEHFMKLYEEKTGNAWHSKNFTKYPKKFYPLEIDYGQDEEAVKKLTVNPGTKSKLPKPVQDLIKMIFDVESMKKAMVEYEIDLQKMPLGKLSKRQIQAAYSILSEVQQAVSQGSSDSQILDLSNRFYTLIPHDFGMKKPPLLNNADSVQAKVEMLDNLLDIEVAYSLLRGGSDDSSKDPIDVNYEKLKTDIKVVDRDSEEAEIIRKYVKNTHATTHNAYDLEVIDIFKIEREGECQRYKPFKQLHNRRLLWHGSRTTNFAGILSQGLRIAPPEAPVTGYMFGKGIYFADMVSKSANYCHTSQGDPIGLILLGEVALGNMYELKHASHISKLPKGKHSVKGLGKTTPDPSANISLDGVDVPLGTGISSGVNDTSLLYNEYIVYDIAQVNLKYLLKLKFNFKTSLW

pIC50 (recombinant human PARP): 7.54 | melting point: 137 to 138.6 °C
Structure (SMILES): Cc1cccc2c(=O)[nH]c(C3CCN(CCO)C3)cc12 (single isomer, unassigned; (+)) [Ex. 38a, (+)-3-[1-(2-hydroxylethyl)pyrrolidin-3-yl]-5-methyl-2H-isoquinolin-1-one]

pIC50 (recombinant human PARP): 7.70 | melting point: 137.3 to 138.6 °C
Structure (SMILES): Cc1cccc2c(=O)[nH]c(C3CCN(CCO)C3)cc12 (single isomer, unassigned; (-)) [Ex. 37a, (−)-3-[1-(2-hydroxylethyl)pyrrolidin-3-yl]-5-methyl-2H-isoquinolin-1-one]

pIC50 (recombinant human PARP): 7.54 | Residual rate (%) under non-shielding 7 days later [1, 2]: ≈100% | Residual rate (%) under non-shielding 11 days later [1, 2]: ≈100% | Residual rate (%) under shielding 7 days later [1, 2]: ≈100% | Residual rate (%) under shielding 11 days later [1, 2]: ≈100% | Residual rate (%) under non-shielding 7 days later [1, 3]: ≈100% | Residual rate (%) under non-shielding 11 days later [1, 3]: ≈100% | Residual rate (%) under shielding 7 days later [1, 3]: ≈100% | Residual rate (%) under shielding 11 days later [1, 3]: ≈100%
Structure (SMILES): Cc1cccc2c(=O)[nH]c(CCN3CCC[C@@H]3CO)cc12 [Ex. 36a, (R)-3-[2-(2-hydroxymethylpyrrolidin-1-yl)ethyl]-5-methyl-2H-isoquinolin-1-one]

melting point: 197 to 199 °C
Structure (SMILES): Cc1cccc2c(=O)[nH]c(C3CCN(CCCO)CC3)cc12 [Example 23a, 5-methyl-3-[1-(3-hydroxypropyl)piperidin-4-yl]-2H-isoquinolin-1-one]

melting point: 184 to 185 °C
Structure (SMILES): Cc1cccc2c(=O)[nH]c(CCN3CCCC(O)C3)cc12 (stereo not shown) [Example 32a, 3-[2-(3-hydroxypiperidin-1-yl)ethyl]-5-methyl-2H-isoquinolin-1-one]

melting point: 180 to 181 °C
Structure (SMILES): Cc1cccc2c(=O)[nH]c(CCN3CCC[C@@H](O)C3)cc12 [Example 35a, (R)-3-[2-(3-hydroxypiperidin-1-yl)ethyl]-5-methyl-2H-isoquinolin-1-one]

Further lines, the compound ahead of its results:

Structure (SMILES): Cc1cccc2c(=O)[nH]c(CCN3CC[C@@H](O)C3)cc12 [Ex. 1a, (R)-3-[2-(3-hydroxypyrrolidin-1-yl)ethyl]-5-methyl-2H-isoquinolin-1-one]
pIC50 (recombinant human PARP): 7.41 | Residual rate (%) under non-shielding 7 days later [1, 2]: ≈100% | Residual rate (%) under non-shielding 11 days later [1, 2]: ≈100% | Residual rate (%) under shielding 7 days later [1, 2]: ≈100% | Residual rate (%) under shielding 11 days later [1, 2]: ≈100% | Residual rate (%) under non-shielding 7 days later [1, 3]: ≈100% | Residual rate (%) under non-shielding 11 days later [1, 3]: ≈100% | Residual rate (%) under shielding 7 days later [1, 3]: ≈100% | Residual rate (%) under shielding 11 days later [1, 3]: ≈100%

Structure (SMILES): Cc1cccc2c(=O)[nH]c(C3CCN(CCO)CC3)cc12 [Ex. 2a, 3-[1-(2-hydroxyethyl)piperidin-4-yl]-5-methyl-2H-isoquinolin-1-one]
pIC50 (recombinant human PARP): 7.77 | Residual rate (%) under non-shielding 7 days later [1, 2]: ≈100% | Residual rate (%) under non-shielding 11 days later [1, 2]: ≈100% | Residual rate (%) under shielding 7 days later [1, 2]: ≈100% | Residual rate (%) under shielding 11 days later [1, 2]: ≈100% | Residual rate (%) under non-shielding 7 days later [1, 3]: ≈100% | Residual rate (%) under non-shielding 11 days later [1, 3]: ≈100% | Residual rate (%) under shielding 7 days later [1, 3]: ≈100% | Residual rate (%) under shielding 11 days later [1, 3]: ≈100%

Structure (SMILES): Cc1cccc2c(=O)[nH]c(CCCN3CCC(O)C3)cc12 (stereo not shown) [Ex. 4a, 3-[3-(3-hydroxypyrrolidin-1-yl)propyl]-5-methyl-2H-isoquinolin-1-one]
pIC50 (recombinant human PARP): 7.34

Structure (SMILES): Cc1cccc2c(=O)[nH]c(CCN3CCC(O)C3)cc12 (stereo not shown) [Ex. 5a, 3-[2-(3-hydroxypyrrolidin-1-yl)ethyl]-5-methyl-2H-isoquinolin-1-one]
pIC50 (recombinant human PARP): 7.30

Structure (SMILES): O=c1[nH]c(C2CCN(CCO)CC2)cc2ccccc12 [Ex. 9a, 3-[1-(2-hydroxyethyl)piperidin-4-yl]-2H-isoquinolin-1-one]
pIC50 (recombinant human PARP): 7.36

Structure (SMILES): Cc1cccc2c(=O)[nH]c(C3CCN(CCO)C3)cc12 (stereo not shown) [Ex. 28a, 3-[1-(2-hydroxyethyl)pyrrolidin-3-yl]-5-methyl-2H-isoquinolin-1-one]
pIC50 (recombinant human PARP): 7.46

Structure (SMILES): Cc1cccc2c(=O)[nH]c(CCN3CC[C@H](O)C3)cc12 [Ex. 34a, (S)-3-[2-(3-hydroxypyrrolidin-1-yl)ethyl]-5-methyl-2H-isoquinolin-1-one]
pIC50 (recombinant human PARP): 7.47 | melting point: 176 to 178 °C
